Earlier results, collected in US20050095288A1, “Decongestant and expectorant tablets” (Andrx Labs, LLC, priority 2003, published 2005).

Conditions: background statement, no test described

- typical plasma half-life: approximately one
Compound: COc1ccccc1OCC(O)CO (stereo not shown) [Guaifenesin, 3-(2-methoxyphenoxy)-1,2-propane-diol]
